{"source": "patent US20250073242A1", "about": "“SLC26A3 INHIBITORS AND USE THEREOF” (THE REGENTS OF THE UNIVERSITY OF CALIFORNIA, priority 2021, published 2025)", "key": {"SLC26A3 [1]": {"molecular_target": "T1, SLC26A3 (Mus musculus, UniProt Q9WVC8)", "T1 sequence (Q9WVC8 1-757)": "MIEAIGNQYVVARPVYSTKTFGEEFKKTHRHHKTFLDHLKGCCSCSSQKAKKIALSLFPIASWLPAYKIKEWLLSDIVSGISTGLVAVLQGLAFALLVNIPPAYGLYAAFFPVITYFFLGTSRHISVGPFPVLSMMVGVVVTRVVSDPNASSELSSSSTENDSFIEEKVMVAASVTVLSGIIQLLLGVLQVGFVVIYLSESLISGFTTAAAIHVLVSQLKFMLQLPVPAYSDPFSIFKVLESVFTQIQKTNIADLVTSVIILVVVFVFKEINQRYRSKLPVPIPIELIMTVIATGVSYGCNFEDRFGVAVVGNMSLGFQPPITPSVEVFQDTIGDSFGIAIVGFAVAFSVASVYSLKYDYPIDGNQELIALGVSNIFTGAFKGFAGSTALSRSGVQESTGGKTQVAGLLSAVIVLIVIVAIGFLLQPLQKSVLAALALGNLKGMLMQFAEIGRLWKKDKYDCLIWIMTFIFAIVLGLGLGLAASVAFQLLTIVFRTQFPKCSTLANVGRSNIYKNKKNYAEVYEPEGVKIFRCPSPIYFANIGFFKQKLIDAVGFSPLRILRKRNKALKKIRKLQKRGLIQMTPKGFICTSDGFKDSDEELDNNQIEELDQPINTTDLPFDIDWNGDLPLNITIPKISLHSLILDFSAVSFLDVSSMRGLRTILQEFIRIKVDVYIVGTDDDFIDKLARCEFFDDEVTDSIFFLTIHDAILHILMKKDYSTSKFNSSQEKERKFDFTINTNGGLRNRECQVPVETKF", "assay": "SLC26A3 inhibition, concentration-dependence (high throughput screening and structure-activity studies)", "format": "cell-based"}, "SLC26A3 [2]": {"molecular_target": "T1, SLC26A3", "assay": "Transepithelial oxalate transport in FRT monolayers expressing SLC26A3", "format": "cell-based", "settings": "pretreatment 15 min, even at 0.1 μM; 500 μM oxalate gradient", "experimental": "In order to determine the effects of DRAinh-A270 on oxalate transport at physiologically relevant concentrations, transepithelial oxalate transport was measured in Fischer rat thyroid (FRT) monolayers expressing SLC26A3 (FRT-A3 cells) permeable filters and exposed to a 500 μM oxalate concentration gradient.\nOxalate transport rate plotted for studies done in FRT cells expressing SLC26A3 (FRT-A3) pretreated with indicated concentrations of DRAinh-A270 (or DMSO control) for 15 min prior to application of the oxalate gradient. FRT cells not expressing SLC26A3 (FRT-null) are shown as controls. Mean±S.E.M., n=6-12 wells per condition. One-way analysis of variance with post hoc Newman-Keuls multiple comparisons test, **p<0.01, ns: not significant."}, "[3]": {"test_system": "mouse distal colonic loops", "assay": "Oxalate absorption in closed distal colonic loops", "format": "in vivo", "settings": "luminal 10 μM, 500 μM oxalate, 60 min", "experimental": "To investigate DRAinh-A270 inhibition of intestinal oxalate transport, experiments were conducted using closed distal colonic loops in which SLC26A3 is the major apical membrane anion transporter. Colonic loops were injected with the solution containing 500 μM sodium oxalate and loop fluid was removed at 60 min to quantify remaining oxalate concentration. To avoid confounding effects of fluid absorption, Cl^−-free solution with amiloride (to block ENaC) was used."}, "DRA": {"molecular_target": "T2, DRA (Mus musculus, UniProt Q9WVC8)", "T2 sequence (Q9WVC8 1-757)": "T1 sequence (Q9WVC8 1-757)", "assay": "Extracellular action: reversal of DRA inhibition after washout", "format": "cell-based", "settings": "cells incubated 10 min at 5 times IC50; measured at 20-30 second after washout", "experimental": "Inhibition was then measured without washout and at 20-30 second after washout."}}}
{"compound": "Cc1ccc(N2C(=O)c3ccc(C(=O)Nc4ccccc4C(=O)O)cc3C2=O)cc1C", "note": "[DRAinh-E2333]", "values": [{"measurement": "IC50", "setting": "SLC26A3 [1]; Class E, Table 1", "result": 310, "unit": "nM"}]}
{"compound": "COc1cccc(C(=O)Nc2nnc(S(=O)(=O)Nc3cccc(C)c3)s2)c1", "note": "[DRAinh-F0170]", "values": [{"measurement": "IC50", "setting": "SLC26A3 [1]; Class F, Table 2", "result": 310, "unit": "nM"}]}
{"compound": "Cc1cccc(NS(=O)(=O)c2nnc(NC(=O)c3cccc(C)c3)s2)c1", "note": "[DRAinh-F0165]", "values": [{"measurement": "IC50", "setting": "SLC26A3 [1]; Class F, Table 2", "result": 470, "unit": "nM"}]}
{"compound": "Cc1c(CC(=O)O)c(=O)oc2c(C)c(OCc3cccc(I)c3)ccc12", "note": "[DRAinh-A270]", "values": [{"measurement": "increased oxalate transport in FRT-A3 cells", "setting": "SLC26A3 [2]", "result": "largely blocked"}, {"measurement": "reduction of oxalate absorption compared to vehicle control", "setting": "[3]", "result": "~70", "unit": "%"}, {"measurement": "reversal of inhibition after washout", "setting": "DRA", "result": "no reversal"}]}
{"compound": "Cc1ccc(COc2ccc3oc(-c4ccccc4)c(C(=O)O)c3c2)cc1", "note": "[DRAinh-H0163]", "values": [{"measurement": "IC50", "setting": "SLC26A3 [1]; Class H, Table 4", "result": 190, "unit": "nM"}]}
{"compound": "Cc1ccccc1COc1ccc2oc(-c3ccccc3)c(C(=O)O)c2c1", "note": "[DRAinh-H0696]", "values": [{"measurement": "IC50", "setting": "SLC26A3 [1]; Class H, Table 4", "result": 340, "unit": "nM"}]}
{"compound": "O=C(O)c1c(-c2ccccc2)oc2ccc(OCc3ccc(Cl)c(Cl)c3)cc12", "note": "[DRAinh-H0493]", "values": [{"measurement": "IC50", "setting": "SLC26A3 [1]; Class H, Table 4", "result": 2300, "unit": "nM"}]}
{"compound": "CC(C)CN1C(=O)c2ccc(C(=O)Nc3ccccc3C(=O)O)cc2C1=O", "note": "[DRAinh-E0078]", "values": [{"measurement": "IC50", "setting": "SLC26A3 [1]; Class E, Table 1", "result": 690, "unit": "nM"}]}
